Measurements as given in publication PMC5725665, “Discovery of a Highly Selective Cell‐Active Inhibitor of the Histone Lysine Demethylases KDM2/7” (Angewandte Chemie (International Ed. in English), 2017).

Legend:
Test in all cases: biochemical
Design in all cases: AlphaScreen histone demethylase activity assay
[1] = molecular target: JARID1A (KDM5A) (Homo sapiens, UniProt P29375)
Text: (§1) A base‐mediated 5‐endo‐trig cyclization of a C‐2‐substituted aromatic imine afforded the racemic indoline core with two adjacent stereocenters. Subsequent acylation of the indoline ring system conferred stability towards oxidation and provided a handle for modulating polarity. Finally, metal‐catalysed cross‐coupling of the aryl bromide provided access to a variety of linkers between the indoline core and pyrrolidine capping group. In total, 45 racemic compounds were synthesized, and IC50 values for inhibition of KDM2A were determined using two orthogonal enzyme activity assays: AlphaScreen25 and RapidFire MS26 (see Section S3.1 in the Supporting Information for complete inhibition data). Key structure–activity relationships are summarized below (Scheme 1 B, compounds 2–12). […] In immunofluorescence assays using HeLa cells ectopically expressing catalytically active KDM2A, a dose‐dependent increase in H3K36me2 staining was observed upon incubation with (S,S)‐6, reflecting augmented cellular H3K36me2 levels (Figure 2 A and Section S3.3). […] To profile its selectivity, (S,S)‐6 was tested for inhibitory activity against a panel of KDMs, methyllysine binding motifs, and epigenetic enzymes.

[2] = molecular target: JARID1C (KDM5C) (Homo sapiens, UniProt P41229)
Sequence of JARID1C (KDM5C) (P41229 whole entry): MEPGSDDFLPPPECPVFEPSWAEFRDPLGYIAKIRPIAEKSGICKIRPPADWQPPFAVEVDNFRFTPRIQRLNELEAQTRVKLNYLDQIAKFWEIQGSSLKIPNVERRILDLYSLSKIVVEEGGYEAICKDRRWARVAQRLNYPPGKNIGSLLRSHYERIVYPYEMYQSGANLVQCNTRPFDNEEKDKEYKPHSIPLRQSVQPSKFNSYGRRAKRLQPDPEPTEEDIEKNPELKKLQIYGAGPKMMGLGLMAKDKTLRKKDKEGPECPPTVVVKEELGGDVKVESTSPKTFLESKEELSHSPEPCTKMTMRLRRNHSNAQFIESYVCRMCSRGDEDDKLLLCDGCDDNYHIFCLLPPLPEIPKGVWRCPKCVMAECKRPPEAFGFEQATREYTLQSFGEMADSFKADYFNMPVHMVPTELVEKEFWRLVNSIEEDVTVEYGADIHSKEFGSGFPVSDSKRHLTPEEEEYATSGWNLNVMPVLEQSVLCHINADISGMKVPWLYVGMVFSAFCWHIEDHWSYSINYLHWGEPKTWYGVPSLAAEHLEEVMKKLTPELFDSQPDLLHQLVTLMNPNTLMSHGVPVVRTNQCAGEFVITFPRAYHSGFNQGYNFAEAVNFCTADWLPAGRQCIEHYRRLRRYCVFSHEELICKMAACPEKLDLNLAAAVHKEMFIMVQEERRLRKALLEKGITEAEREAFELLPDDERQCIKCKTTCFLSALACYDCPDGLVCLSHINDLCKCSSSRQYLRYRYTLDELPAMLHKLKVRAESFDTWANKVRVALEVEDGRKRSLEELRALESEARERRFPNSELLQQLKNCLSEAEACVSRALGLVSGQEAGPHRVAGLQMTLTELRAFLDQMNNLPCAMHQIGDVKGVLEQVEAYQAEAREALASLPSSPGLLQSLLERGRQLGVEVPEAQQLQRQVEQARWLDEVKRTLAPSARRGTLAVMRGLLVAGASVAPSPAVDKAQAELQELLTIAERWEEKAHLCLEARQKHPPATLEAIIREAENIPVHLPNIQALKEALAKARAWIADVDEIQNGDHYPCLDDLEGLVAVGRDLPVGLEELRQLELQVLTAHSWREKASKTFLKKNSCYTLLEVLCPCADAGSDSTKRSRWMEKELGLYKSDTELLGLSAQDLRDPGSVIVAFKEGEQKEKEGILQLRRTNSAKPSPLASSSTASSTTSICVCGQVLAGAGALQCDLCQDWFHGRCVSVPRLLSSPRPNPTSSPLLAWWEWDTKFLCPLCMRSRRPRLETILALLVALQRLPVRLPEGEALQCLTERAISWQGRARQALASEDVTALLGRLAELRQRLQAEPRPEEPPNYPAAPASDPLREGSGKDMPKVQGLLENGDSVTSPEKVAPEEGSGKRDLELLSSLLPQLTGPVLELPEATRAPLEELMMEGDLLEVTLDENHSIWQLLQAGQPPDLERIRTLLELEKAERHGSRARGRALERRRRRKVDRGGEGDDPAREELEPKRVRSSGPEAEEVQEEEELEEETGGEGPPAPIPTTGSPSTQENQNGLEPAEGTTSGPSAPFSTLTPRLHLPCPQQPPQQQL
Text: as §1

[3] = molecular target: T1, JMJD1A (KDM3A) (Homo sapiens, UniProt Q9Y4C1)
T1 sequence (Q9Y4C1 1-1321): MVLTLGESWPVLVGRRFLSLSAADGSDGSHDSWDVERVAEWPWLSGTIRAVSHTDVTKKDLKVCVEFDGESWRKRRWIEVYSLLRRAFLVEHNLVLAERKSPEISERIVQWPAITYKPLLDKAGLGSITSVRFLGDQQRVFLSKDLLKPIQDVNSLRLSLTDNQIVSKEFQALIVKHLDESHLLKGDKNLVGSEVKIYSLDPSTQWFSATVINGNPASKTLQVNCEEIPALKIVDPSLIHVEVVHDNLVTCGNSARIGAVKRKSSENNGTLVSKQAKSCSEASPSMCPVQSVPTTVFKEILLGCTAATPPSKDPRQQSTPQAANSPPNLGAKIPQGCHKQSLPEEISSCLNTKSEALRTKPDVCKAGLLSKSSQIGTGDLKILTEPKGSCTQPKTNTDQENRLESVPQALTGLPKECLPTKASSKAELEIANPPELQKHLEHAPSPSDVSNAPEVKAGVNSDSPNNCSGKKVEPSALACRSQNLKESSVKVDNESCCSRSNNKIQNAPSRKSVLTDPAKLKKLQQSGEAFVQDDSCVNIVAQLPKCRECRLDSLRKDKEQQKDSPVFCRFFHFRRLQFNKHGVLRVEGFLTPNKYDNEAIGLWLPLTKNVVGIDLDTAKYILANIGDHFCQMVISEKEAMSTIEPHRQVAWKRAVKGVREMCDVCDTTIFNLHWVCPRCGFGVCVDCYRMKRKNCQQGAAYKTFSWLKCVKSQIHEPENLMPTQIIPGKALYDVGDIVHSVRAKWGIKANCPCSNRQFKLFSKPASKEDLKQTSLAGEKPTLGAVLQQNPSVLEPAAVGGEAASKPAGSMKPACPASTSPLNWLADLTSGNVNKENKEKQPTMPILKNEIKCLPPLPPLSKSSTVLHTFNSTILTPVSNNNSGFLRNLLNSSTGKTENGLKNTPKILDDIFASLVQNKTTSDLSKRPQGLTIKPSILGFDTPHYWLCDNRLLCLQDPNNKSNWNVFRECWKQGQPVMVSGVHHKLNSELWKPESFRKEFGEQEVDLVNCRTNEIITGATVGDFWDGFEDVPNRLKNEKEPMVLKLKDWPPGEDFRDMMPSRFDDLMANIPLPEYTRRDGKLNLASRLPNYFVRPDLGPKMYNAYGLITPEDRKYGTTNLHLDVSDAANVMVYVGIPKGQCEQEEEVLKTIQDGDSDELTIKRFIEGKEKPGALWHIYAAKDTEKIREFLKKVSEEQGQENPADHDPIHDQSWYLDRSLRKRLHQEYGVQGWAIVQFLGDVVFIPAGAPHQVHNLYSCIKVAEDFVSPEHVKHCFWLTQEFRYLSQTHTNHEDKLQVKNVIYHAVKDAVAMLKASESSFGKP
Text: as §1

[4] = molecular target: T2, JMJD2C (KDM4C) (Homo sapiens, UniProt Q9H3R0); details: read-out: KDM4C % Inhib. (10 uM)
T2 sequence (Q9H3R0 1-1056): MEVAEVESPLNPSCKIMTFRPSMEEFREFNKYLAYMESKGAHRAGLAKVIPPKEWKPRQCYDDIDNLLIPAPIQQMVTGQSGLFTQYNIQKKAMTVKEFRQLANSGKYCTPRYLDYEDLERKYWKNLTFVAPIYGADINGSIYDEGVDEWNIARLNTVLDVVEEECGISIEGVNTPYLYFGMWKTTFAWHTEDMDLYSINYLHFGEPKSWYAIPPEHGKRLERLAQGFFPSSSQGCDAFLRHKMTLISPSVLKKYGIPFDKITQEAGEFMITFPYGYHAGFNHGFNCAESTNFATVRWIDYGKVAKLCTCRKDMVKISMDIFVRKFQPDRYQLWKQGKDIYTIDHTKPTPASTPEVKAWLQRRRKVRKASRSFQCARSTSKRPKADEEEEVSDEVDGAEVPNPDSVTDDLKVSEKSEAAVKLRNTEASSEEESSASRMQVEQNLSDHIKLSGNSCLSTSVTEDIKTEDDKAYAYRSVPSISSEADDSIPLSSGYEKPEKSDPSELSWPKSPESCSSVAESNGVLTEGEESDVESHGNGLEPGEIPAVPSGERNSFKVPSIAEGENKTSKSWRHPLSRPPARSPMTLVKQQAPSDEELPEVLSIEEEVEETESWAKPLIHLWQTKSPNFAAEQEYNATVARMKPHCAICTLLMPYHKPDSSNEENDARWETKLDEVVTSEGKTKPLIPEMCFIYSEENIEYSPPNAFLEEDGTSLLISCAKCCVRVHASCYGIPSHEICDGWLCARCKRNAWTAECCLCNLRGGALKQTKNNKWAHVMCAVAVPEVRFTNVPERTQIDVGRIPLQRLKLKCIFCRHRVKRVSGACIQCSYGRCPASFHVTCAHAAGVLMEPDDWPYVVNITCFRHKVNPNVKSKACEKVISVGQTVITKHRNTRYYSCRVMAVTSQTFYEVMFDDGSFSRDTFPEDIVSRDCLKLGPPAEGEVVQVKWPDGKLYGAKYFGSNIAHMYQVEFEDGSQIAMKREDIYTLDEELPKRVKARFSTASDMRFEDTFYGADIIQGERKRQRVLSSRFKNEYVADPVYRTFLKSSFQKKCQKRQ
Text: as §1

[5] = molecular target: T3, JMJD2D (KDM4D) (Homo sapiens, UniProt Q6B0I6)
T3 sequence (Q6B0I6 1-523): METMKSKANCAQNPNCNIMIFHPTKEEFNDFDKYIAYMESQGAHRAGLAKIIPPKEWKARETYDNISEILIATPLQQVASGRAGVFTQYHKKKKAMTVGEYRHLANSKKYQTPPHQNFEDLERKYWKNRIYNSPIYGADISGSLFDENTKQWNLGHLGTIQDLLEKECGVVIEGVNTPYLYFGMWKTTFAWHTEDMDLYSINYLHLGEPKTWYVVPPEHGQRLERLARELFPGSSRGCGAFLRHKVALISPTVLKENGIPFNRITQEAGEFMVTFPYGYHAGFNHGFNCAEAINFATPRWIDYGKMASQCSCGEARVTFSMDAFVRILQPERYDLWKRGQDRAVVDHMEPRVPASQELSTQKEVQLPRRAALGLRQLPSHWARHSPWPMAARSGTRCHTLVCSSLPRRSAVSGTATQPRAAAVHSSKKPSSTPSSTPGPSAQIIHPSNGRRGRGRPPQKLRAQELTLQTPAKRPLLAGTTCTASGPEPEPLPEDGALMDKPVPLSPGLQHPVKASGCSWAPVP
Text: as §1

[6] = molecular target: T4, JMJD2A (KDM4A) (Homo sapiens, UniProt O75164); details: read-out: KDM4A % Inhib. (10 uM)
T4 sequence (O75164 1-1064): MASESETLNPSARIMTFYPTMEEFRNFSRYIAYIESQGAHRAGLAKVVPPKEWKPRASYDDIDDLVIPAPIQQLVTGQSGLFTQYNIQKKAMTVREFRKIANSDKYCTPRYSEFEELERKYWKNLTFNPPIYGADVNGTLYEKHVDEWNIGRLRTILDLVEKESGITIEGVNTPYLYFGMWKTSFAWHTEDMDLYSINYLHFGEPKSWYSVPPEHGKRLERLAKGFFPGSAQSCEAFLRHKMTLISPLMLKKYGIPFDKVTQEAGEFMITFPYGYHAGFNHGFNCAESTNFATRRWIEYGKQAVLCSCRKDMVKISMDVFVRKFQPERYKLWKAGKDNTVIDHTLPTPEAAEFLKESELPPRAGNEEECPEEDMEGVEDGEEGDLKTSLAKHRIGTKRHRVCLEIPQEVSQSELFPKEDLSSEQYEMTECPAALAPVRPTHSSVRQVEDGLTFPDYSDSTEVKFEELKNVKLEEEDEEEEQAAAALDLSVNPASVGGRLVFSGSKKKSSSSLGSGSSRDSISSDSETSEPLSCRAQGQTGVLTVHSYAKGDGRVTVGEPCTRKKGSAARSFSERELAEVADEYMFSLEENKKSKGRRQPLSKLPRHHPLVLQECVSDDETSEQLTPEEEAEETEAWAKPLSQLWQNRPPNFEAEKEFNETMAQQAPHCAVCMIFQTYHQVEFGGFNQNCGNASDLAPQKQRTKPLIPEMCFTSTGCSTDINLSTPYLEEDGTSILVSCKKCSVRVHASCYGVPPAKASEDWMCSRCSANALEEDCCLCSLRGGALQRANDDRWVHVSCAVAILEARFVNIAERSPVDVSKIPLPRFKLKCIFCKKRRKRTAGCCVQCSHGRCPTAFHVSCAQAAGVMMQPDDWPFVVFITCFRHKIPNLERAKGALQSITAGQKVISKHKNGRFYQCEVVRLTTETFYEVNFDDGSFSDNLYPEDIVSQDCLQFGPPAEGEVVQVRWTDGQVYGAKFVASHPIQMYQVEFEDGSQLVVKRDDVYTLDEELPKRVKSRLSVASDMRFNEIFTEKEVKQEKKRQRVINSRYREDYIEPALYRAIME

Sequence of JARID1A (KDM5A) (P29375 whole entry): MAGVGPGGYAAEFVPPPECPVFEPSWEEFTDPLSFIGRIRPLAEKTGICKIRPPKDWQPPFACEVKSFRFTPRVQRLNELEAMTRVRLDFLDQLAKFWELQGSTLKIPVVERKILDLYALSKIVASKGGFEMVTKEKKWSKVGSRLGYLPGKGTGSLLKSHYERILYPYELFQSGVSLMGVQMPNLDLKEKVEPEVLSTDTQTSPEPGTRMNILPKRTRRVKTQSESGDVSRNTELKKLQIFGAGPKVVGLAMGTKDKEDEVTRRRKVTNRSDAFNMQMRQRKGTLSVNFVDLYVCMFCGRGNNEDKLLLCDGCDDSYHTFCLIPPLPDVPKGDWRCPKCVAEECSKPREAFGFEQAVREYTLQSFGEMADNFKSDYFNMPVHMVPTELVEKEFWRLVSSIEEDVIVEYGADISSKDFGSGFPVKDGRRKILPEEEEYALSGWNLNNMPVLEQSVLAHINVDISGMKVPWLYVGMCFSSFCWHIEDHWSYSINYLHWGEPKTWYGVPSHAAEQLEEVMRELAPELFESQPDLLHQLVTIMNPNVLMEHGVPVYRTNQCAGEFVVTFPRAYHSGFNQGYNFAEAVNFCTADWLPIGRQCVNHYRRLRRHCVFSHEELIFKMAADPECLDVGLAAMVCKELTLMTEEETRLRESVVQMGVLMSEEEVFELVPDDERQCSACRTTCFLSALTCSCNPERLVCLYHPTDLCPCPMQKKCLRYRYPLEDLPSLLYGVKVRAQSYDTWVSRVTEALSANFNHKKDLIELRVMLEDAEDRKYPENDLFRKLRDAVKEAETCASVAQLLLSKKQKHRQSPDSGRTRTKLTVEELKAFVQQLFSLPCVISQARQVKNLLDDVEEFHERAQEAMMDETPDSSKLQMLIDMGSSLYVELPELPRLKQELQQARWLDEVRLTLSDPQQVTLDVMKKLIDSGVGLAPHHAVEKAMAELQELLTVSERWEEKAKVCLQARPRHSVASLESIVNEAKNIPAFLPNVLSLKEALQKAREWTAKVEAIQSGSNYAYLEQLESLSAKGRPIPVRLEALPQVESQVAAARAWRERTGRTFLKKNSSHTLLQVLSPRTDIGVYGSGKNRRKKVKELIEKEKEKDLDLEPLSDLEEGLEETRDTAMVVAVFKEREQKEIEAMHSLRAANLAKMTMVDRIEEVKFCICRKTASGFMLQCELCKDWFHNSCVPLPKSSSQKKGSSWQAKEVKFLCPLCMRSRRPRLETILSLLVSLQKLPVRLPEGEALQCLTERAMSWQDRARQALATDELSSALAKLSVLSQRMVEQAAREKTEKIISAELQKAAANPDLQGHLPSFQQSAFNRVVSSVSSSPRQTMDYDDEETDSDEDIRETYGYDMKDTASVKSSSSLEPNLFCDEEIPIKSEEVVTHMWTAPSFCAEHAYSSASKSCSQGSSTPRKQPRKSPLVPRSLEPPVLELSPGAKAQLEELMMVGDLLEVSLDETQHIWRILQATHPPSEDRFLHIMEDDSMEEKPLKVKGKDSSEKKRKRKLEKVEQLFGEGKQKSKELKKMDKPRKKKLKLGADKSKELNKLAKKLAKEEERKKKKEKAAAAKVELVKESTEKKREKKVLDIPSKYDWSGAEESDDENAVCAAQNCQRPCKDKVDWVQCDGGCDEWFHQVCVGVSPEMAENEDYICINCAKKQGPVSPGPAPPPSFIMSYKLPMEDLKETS

Row | inhibition at 50 µM [1] [%] | inhibition at 100 µM [2] [%] | inhibition at 100 µM [3] [%] | inhibition at 10 µM [4] [%] | inhibition at 10 µM [5] [%] | inhibition at 10 µM [6] [%] | Compound
1 | 39.1 | 32.3 | 15.1 ± 9.5 | – | – | – | CC(=O)N1c2ccccc2[C@](C#N)(c2ccccc2)[C@H]1c1cncc(/C=C/CCCCCN2CCCC2)c1 (racemic) [compound 5, 5]
2 | 39.5 | 46.7 | 21.1 | – | – | – | CC(=O)N1c2ccccc2C(C#N)(c2ccccc2)C1c1cncc(-c2cn(CCCCCN3CCCC3)nn2)c1 (stereo not shown) [compound 119, 119]
3 | 46.6 | – | – | 32.3 | 14.4 | 24.4 | CC(=O)N1c2ccccc2C(C#N)(c2ccccc2)C1c1ccc(CCCCCCCN2CCCC2)o1 (stereo not shown) [compound 138, 138]
